Assay results published in ChEMBL document CHEMBL6078682, “Circumventing Imatinib resistance in CML: Novel Telmisartan-based cell death modulators with improved activity and stability” (Eur J Med Chem, 2025).
Converted amounts (≈) assume the structure as drawn. The source made the active and inactive calls. The calls are words filed in the database; no cut-off is given here.

Key:
[1] = Drug uptake in human Imatinib-resistant K562 cells assessed as increase in fluorescent intensity measured after 3 hrs by coomassie brilliant blue staining based analysis; type: ADME, cell-based; details: k562-ima[r]
K562 [2] = test: Re-sensitization of human K562 cells to imatinib assessed as reduction in metabolic activity by measuring maximal sensitizing concentration in presence of imatinib by EZ4U assay; type: functional, cell-based; details: read-out: EC50
[3] = Stability of compound in PBS buffer incubated for 8 to 24 hrs by HPLC analysis; type: physicochemical; details: time 8-24 hrs
[4] = Drug uptake in human Imatinib-resistant K562 cells assessed as increase in fluorescent intensity measured after 24 hrs by coomassie brilliant blue staining based analysis; type: ADME, cell-based; details: k562-ima[r]
Liver carboxylesterase [5] = biological target: T1, Liver carboxylesterase (Sus scrofa, UniProt Q29550); test: Stability of the compound assessed as porcine liver esterase-mediated hydrolysis by measuring half life at 800 uM measured after 180 mins by HPLC analysis; type: ADME; details: pig
T1 sequence (Q29550 whole entry): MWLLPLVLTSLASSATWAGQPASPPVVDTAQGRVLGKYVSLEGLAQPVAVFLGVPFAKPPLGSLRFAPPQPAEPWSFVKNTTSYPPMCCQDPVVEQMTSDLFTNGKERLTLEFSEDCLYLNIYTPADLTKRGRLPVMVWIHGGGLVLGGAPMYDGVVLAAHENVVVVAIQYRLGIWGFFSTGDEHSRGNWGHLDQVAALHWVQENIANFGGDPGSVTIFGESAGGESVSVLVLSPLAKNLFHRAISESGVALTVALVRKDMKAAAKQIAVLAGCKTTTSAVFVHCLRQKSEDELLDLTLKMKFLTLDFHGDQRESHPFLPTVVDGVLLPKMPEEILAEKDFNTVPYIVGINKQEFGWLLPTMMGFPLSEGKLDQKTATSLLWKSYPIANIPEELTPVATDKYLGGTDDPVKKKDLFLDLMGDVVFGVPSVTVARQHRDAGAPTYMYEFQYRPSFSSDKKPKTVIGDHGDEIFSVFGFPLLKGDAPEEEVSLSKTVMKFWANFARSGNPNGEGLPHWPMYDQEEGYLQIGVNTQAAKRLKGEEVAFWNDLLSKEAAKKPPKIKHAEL

[6] = Cytotoxicity against human HS5 cells assessed as effect on metabolic activity at 10 uM incubated for 72 hrs by MTT assay; type: toxicity, cell-based; details: hs5, 72 h
[7] = Drug uptake in human Imatinib-resistant K562 cells assessed as increase in fluorescent intensity measured after 1 hr by coomassie brilliant blue staining based analysis; type: ADME, cell-based; details: k562-ima[r]
K562-IMA[r] = test: Cytotoxicity against human Imatinib-resistant K562 cells assessed as effect on metabolic activity at 10 uM incubated for 72 hrs by MTT assay; type: functional, cell-based
[8] = Stability in cell culture medium containing fetal bovine serum assessed as compound remaining at 200 uM at 37 degreeC measured after 72 hrs by RP-HPLC analysis; type: ADME, cell-free; details: cattle, read-out: Stability
[9] = Retention time of compound by HPLC analysis; type: physicochemical
K562 [10] = test: Re-sensitization of human K562 cells to imatinib assessed as reduction in metabolic activity at 5 uM in presence of imatinib by EZ4U assay; type: functional, cell-based
COS-7 = test: Cytotoxicity against african green monkey COS-7 cells assessed as effect on metabolic activity at 10 uM incubated for 72 hrs by MTT assay; type: toxicity, cell-based; details: chlorocebus aethiops, cos-7, 72 h
[11] = Solubility of compound in DMSO measured for 30 mins by UV-spectroscopy analysis; type: physicochemical
K562 [12] = test: Re-sensitization of human K562 cells to imatinib assessed as reduction in metabolic activity at 5 uM in presence of 1 uM imatinib by EZ4U assay; type: functional, cell-based
[13] = Stability of the compound assessed as Pseudomonas aeruginosa Amidase-mediated hydrolysis at 800 uM measured after 6 hrs by HPLC analysis; type: ADME; details: isolated protein
[14] = Drug uptake in human Imatinib-resistant K562 cells assessed as increase in fluorescent intensity measured at 24 hrs by coomassie brilliant blue staining based analysis; type: ADME, cell-based; details: k562-ima[r]
Liver carboxylesterase [15] = biological target: T1, Liver carboxylesterase; test: Stability of the compound assessed as porcine liver esterase-mediated hydrolysis at 800 uM measured after 180 mins by HPLC analysis; type: ADME; details: pig, isolated protein, 3 h
K562 [16] = test: Re-sensitization of human K562 cells to imatinib assessed as reduction in metabolic activity at 10 uM in presence of imatinib by EZ4U assay; type: functional, cell-based
amidase = test: Stability of the compound assessed as Pseudomonas aeruginosa Amidase-mediated hydrolysis by measuring half life at 800 uM measured after 24 hrs by HPLC analysis; type: ADME
[17] = Stability of the compound assessed as Pseudomonas aeruginosa Amidase-mediated hydrolysis at 800 uM measured after 24 hrs by HPLC analysis; type: ADME; details: isolated protein
[18] = Drug uptake in human Imatinib-resistant K562 cells assessed as increase in fluorescent intensity measured after 1 to 24 hrs by coomassie brilliant blue staining based analysis; type: ADME, cell-based; details: k562-ima[r], time 1-24 hrs

SMILES | maximal sensitizing concentration (K562 [2]) | Stability [3] | half-life at 800 µM (Liver carboxylesterase [5]) | Activity [6] | Activity (K562-IMA[r]) | remaining at 72 h, 200 µM [8] | Retention_time [9] | Activity (COS-7) | Activity (K562 [12]) | Stability (Liver carboxylesterase [15]) | further results
CCCc1nc2ccccc2n1Cc1ccc(-c2ccccc2C(=O)OC)cc1 | 2400 nM | Stable | 55 min | Non-toxic | inactive | 67.8% | 12.4 min | Non-toxic | – | – | Drug uptake [1]: 3.5 nmol/mg; Drug uptake [4]: 4.7 nmol/mg; Drug uptake [7]: 3 nmol/mg; Activity (K562 [10]): Active
CCCc1nc2ccccc2n1Cc1ccc(-c2ccccc2C(=O)Oc2ccc(-c3ccccc3)cc2)cc1 | – | Stable | – | – | – | – | 15.3 min | – | – | – | solubility at 0.5 h [11]: 16 mM (≈ 8.36 mg/mL)
CCCc1nc2ccccc2n1Cc1ccc(-c2ccccc2C(=O)Oc2ccccc2)cc1 | 1500 nM | Stable | 280 min | Non-toxic | inactive | 94.8% | 13.7 min | Non-toxic | Active | – | Drug uptake [1]: 13.1 nmol/mg; Drug uptake [4]: 15.7 nmol/mg
CCCc1nc2ccccc2n1Cc1ccc(-c2ccccc2C(=O)OC(C)(C)C)cc1 | 2900 nM | Stable | – | Non-toxic | inactive | 97.2% | 13.4 min | Non-toxic | Active | – | –
CCCc1nc2ccccc2n1Cc1ccc(-c2ccccc2C(=O)Oc2ccc(Oc3ccccc3)cc2)cc1 | 2500 nM | Stable | 370 min | Non-toxic | inactive | 99.8% | 15.2 min | Non-toxic | Active | – | solubility at 0.5 h [11]: 22 mM (≈ 11.9 mg/mL)
CCCNC(=O)c1ccccc1-c1ccc(Cn2c(CCC)nc3ccccc32)cc1 | 4500 nM | Stable | – | Non-toxic | inactive | 95.1% | < 11.1 min | Non-toxic | Active | – | –
CCCc1nc2ccccc2n1Cc1ccc(-c2ccccc2C(=O)Nc2ccccc2)cc1 | 1600 nM | Stable | – | Non-toxic | inactive | 98.4% | 12 min | Non-toxic | Active | Stable | Drug uptake [1]: 2.7 nmol/mg; Stability [13]: Stable; Drug uptake [7]: 1.9 nmol/mg; Drug uptake [14]: 14.5 nmol/mg
CCCCNC(=O)c1ccccc1-c1ccc(Cn2c(CCC)nc3ccccc32)cc1 | 1300 nM | Stable | – | Non-toxic | inactive | 97.1% | < 11.6 min | Non-toxic | Active | Stable | Stability [13]: Stable
CCCc1nc2ccccc2n1Cc1ccc(-c2ccccc2C(=O)O)cc1 | – | – | – | – | – | – | 10.8 min | – | – | – | Activity (K562 [16]): Active
CCCc1nc2ccccc2n1Cc1ccc(-c2ccccc2C(=O)Nc2ccc(Oc3ccccc3)cc2)cc1 | 1300 nM | Stable | – | Non-toxic | inactive | 102% | 13.6 min | Non-toxic | Active | Stable | Stability [13]: Stable
CCCCOC(=O)c1ccccc1-c1ccc(Cn2c(CCC)nc3ccccc32)cc1 | 1600 nM | Stable | 82.2 min | Non-toxic | inactive | 78% | < 13.8 min | Non-toxic | Active | – | –
CCCc1nc2ccccc2n1Cc1ccc(-c2ccccc2C(=O)NC(C)(C)C)cc1 | 5200 nM | Stable | – | Non-toxic | inactive | 100% | 11.5 min | Non-toxic | Active | Stable | Stability [13]: Stable
CCCc1nc2ccccc2n1Cc1ccc(-c2ccccc2C(=O)NCC)cc1 | 6200 nM | Stable | – | Non-toxic | inactive | 95.1% | < 10.3 min | Non-toxic | Active | Stable | half-life at 800 µM (amidase): 3900 min; Stability [17]: Stable
CCCc1nc2ccccc2n1Cc1ccc(-c2ccccc2C(=O)OC(C)C)cc1 | 2200 nM | Stable | – | Non-toxic | inactive | 91.9% | 13.1 min | Non-toxic | Active | – | –
CCCOC(=O)c1ccccc1-c1ccc(Cn2c(CCC)nc3ccccc32)cc1 | 1800 nM | Stable | 69.4 min | Non-toxic | inactive | 75.9% | < 13.6 min | Non-toxic | Active | – | –
CCCc1nc2ccccc2n1Cc1ccc(-c2ccccc2C(=O)NC(C)C)cc1 | 4800 nM | Stable | – | Non-toxic | inactive | 99.1% | 10.8 min | Non-toxic | Active | – | –
CCCc1nc2ccccc2n1Cc1ccc(-c2ccccc2C(=O)OCC)cc1 | 2100 nM | Stable | 63.3 min | Non-toxic | inactive | 71.9% | < 12.8 min | Non-toxic | Active | – | –
CCCc1nc2ccccc2n1Cc1ccc(-c2ccccc2C(=O)NC)cc1 | 11200 nM | Stable | – | Non-toxic | inactive | 93.4% | 9.9 min | Non-toxic | inactive | Stable | half-life at 800 µM (amidase): 2020 min; Drug uptake [4]: Not_active; Drug uptake [18]: Not_active; Stability [17]: Stable
